Assay results: US12285407B2, “Bis-indolylmethane derivatives and uses thereof” (The University of The West Indies, priority 2018, dated 2025)
Where two headings read alike, the source gives them in different places.

Columns and labels:
Klebsiella pneumoniae = assay: Checkerboard synergy (FICI) of antibiotics with SP-BIM; type: cell-based; settings: for MIC: 24 h, antibiotic alone, read-out: MIC antibiotic only
Streptococcus pneumoniae [1] = assay: Adjuvant broth microdilution (antibiotic MIC with SP-BIM at 50 μg/mL); type: cell-based; settings: Streptococcus pneumoniae; Streptococcus pneumonia; antibiotic alone; Table 5; read-out: MIC of antibiotic, No compound
Escherichia coli [2] = assay: microbe, parasite or virus in culture; type: cell-based; settings: antibiotic alone, Table 6, read-out: MIC of antibiotic, No compound
clinical strains of MRSA = assay: Kirby Bauer disc diffusion susceptibility profile; type: cell-based, Staphylococcus aureus; settings: for Zone of clearance: 35° C., 24 hours, average n=3; for Interpretive standard (resistant/susceptible): zones vs EUCAST breakpoints (Table 30)
Staphylococcus aureus = assay: Checkerboard synergy (FICI) of antibiotics with SP-BIM; type: cell-based; settings: Staphylococcus aureus, Staphylococcus aureus; for MIC: 24 h, antibiotic alone, read-out: MIC antibiotic only
Bacillus cereus = assay: as above; type: cell-based; settings: for MIC: 24 h, antibiotic alone, read-out: MIC antibiotic only
Escherichia coli O157:H7 = type: cell-based; settings: antibiotic alone, no SP-BIM
Streptococcus pneumoniae [3] = assay: Checkerboard synergy (FICI) of antibiotics with SP-BIM; type: cell-based; settings: Streptococcus pneumonia (title: Streptococcus pyogenes)
Escherichia coli [4] = assay: as above; parameters: MIC SP-BIM 13 only / MIC in combination: Antibiotic: unit not given beside the values; settings: for MIC: 24 h
Candida albicans = assay: as above; parameters: MIC SP-BIM 13 only / MIC in combination: Antibiotic / MIC antibiotic only: unit not given beside the values
[5] = SP-BIM 9 in combination with the labelled antibiotic
[6] = SP-BIM 13 in combination with the labelled antibiotic
[7] = antibiotic in combination with SP-BIM 9
[8] = antibiotic in combination with SP-BIM 13
[9] = MIC of the antibiotic in combination with SP-BIM 13

CC[C@H]1OC(=O)[C@H](C)[C@@H](O[C@H]2C[C@@](C)(OC)[C@@H](O)[C@H](C)O2)[C@H](C)[C@@H](O[C@@H]2O[C@H](C)C[C@H](N(C)C)[C@H]2O)[C@](C)(O)C[C@@H](C)C(=O)[C@H](C)[C@@H](O)[C@]1(C)O [Erythromycin, erythromycin]
MIC (Klebsiella pneumoniae; SP-BIM 9 checkerboard): 250 µg/mL
MIC (Klebsiella pneumoniae; SP-BIM 13 checkerboard): 16 µg/mL
FIC of SP-BIM 9 (Klebsiella pneumoniae; [5]): 0.5
FIC of SP-BIM 13 (Klebsiella pneumoniae; [6]): 1.0
Interpretation (Klebsiella pneumoniae; antibiotic + SP-BIM 9): Additive (Additive: FICI>0.5-1.0)
Σ FIC (Klebsiella pneumoniae; antibiotic + SP-BIM 9): <0.8
Interpretation (Klebsiella pneumoniae; antibiotic + SP-BIM 13): Indifferent (Indifferent: FICI>1.0-4.0)
Σ FIC (Klebsiella pneumoniae; antibiotic + SP-BIM 13): <2.0
MIC in combination, Antibiotic (Klebsiella pneumoniae; [7]): 63 µg/mL
MIC in combination, Antibiotic (Klebsiella pneumoniae; [8]): 16 µg/mL
FIC of antibiotic (Klebsiella pneumoniae; in combination with SP-BIM 9): 0.252
FIC of antibiotic (Klebsiella pneumoniae; in combination with SP-BIM 13): 1.0
MIC (Streptococcus pneumoniae [1]): 4 µg/mL
MIC (Escherichia coli [2]): > 250 µg/mL
Zone of clearance (clinical strains of MRSA; MRSA strain 1594): 19.0 mm
Interpretive standard (resistant/susceptible) (clinical strains of MRSA; MRSA strain 1594): S
Zone of clearance (clinical strains of MRSA; MRSA strain 1621): 21.5 mm
Interpretive standard (resistant/susceptible) (clinical strains of MRSA; MRSA strain 1621): S
Zone of clearance (clinical strains of MRSA; MRSA strain 5455): 20.5 mm
Interpretive standard (resistant/susceptible) (clinical strains of MRSA; MRSA strain 5455): S
Zone of clearance (clinical strains of MRSA; MRSA strain 5872): 0.0 mm
Interpretive standard (resistant/susceptible) (clinical strains of MRSA; MRSA strain 5872): R
Zone of clearance (clinical strains of MRSA; MRSA strain 7153): 18.5 mm
Interpretive standard (resistant/susceptible) (clinical strains of MRSA; MRSA strain 7153): S
Zone of clearance (clinical strains of MRSA; MRSA strain 7172): 17.5 mm
Interpretive standard (resistant/susceptible) (clinical strains of MRSA; MRSA strain 7172): S
Zone of clearance (clinical strains of MRSA; MRSA strain 7698): 17.5 mm
Interpretive standard (resistant/susceptible) (clinical strains of MRSA; MRSA strain 7698): S
Zone of clearance (clinical strains of MRSA; MRSA strain 10132): 9.0 mm
Interpretive standard (resistant/susceptible) (clinical strains of MRSA; MRSA strain 10132): R
MIC (Staphylococcus aureus; SP-BIM 9 checkerboard): 0.1 µg/mL
MIC (Staphylococcus aureus; SP-BIM 13 checkerboard): 0.1 µg/mL
FIC of SP-BIM 9 (Staphylococcus aureus; [5]): 0.50
FIC of SP-BIM 13 (Staphylococcus aureus; [6]): 0.5
Interpretation (Staphylococcus aureus; antibiotic + SP-BIM 9): Additive (Additive: FICI>0.5-1.0)
Σ FIC (Staphylococcus aureus; antibiotic + SP-BIM 9): <0.70
Interpretation (Staphylococcus aureus; antibiotic + SP-BIM 13): Additive (Additive: FICI>0.5-1.0)
Σ FIC (Staphylococcus aureus; antibiotic + SP-BIM 13): 0.7
MIC in combination, Antibiotic (Staphylococcus aureus; [7]): 0.05 µg/mL
MIC in combination, Antibiotic (Staphylococcus aureus; [8]): 0.02 µg/mL
FIC of antibiotic (Staphylococcus aureus; in combination with SP-BIM 9): 0.20
FIC of antibiotic (Staphylococcus aureus; in combination with SP-BIM 13): 0.2
MIC (Bacillus cereus; SP-BIM 9 checkerboard): 16 µg/mL
MIC (Bacillus cereus; SP-BIM 13 checkerboard): 16 µg/mL
MIC in combination, SP-BIM 9 (Bacillus cereus; SP-BIM 9 concentration in combination with the labelled antibiotic): >250 µg/mL
FIC of SP-BIM 9 (Bacillus cereus; [5]): 1
FIC of SP-BIM 13 (Bacillus cereus; [6]): 0.5
Interpretation (Bacillus cereus; antibiotic + SP-BIM 9): Indifferent (Indifferent: FICI>1.0-4.0)
Σ FIC (Bacillus cereus; antibiotic + SP-BIM 9): <2.0
Interpretation (Bacillus cereus; antibiotic + SP-BIM 13): Synergy (Synergy: FICI≤0.5)
Σ FIC (Bacillus cereus; antibiotic + SP-BIM 13): 0.5
MIC in combination, Antibiotic (Bacillus cereus; [7]): 16 µg/mL
MIC in combination, Antibiotic (Bacillus cereus; [8]): 0.05 µg/mL
FIC of antibiotic (Bacillus cereus; in combination with SP-BIM 9): 1
FIC of antibiotic (Bacillus cereus; in combination with SP-BIM 13): 0.01
MIC of antibiotic, No Compound (Escherichia coli O157:H7): 250 µg/mL
FIC of SP-BIM 9 (Streptococcus pneumoniae [3]; [5]): 1.00
Interpretation (Streptococcus pneumoniae [3]; antibiotic + SP-BIM 9): Indifference
Σ FIC (Streptococcus pneumoniae [3]; antibiotic + SP-BIM 9): <2.00
MIC in combination, Antibiotic (Streptococcus pneumoniae [3]; [7]): >250 µg/mL
FIC of antibiotic (Streptococcus pneumoniae [3]; in combination with SP-BIM 9): 1.00
MIC (Streptococcus pneumoniae [3]; Streptococcus pneumoniae, 24 h, antibiotic alone, SP-BIM 9 checkerboard, read-out: MIC antibiotic only): > 250 µg/mL
MIC (Escherichia coli [4]; read-out: MIC antibiotic only, Escherichia coli, antibiotic alone): 16 µg/mL
MIC (Escherichia coli [4]; read-out: MIC antibiotic only, Escherichia coli, antibiotic alone, SP-BIM 9 checkerboard): 250 µg/mL
MIC in combination: Antibiotic (Escherichia coli [4]; [9]): 16
FIC of SP-BIM 9 (Escherichia coli [4]; [5]): 1
FIC of SP-BIM 13 (Escherichia coli [4]; [6]): 1.0
Interpretation (Escherichia coli [4]; antibiotic + SP-BIM 9): Indifferent (Indifferent: FICI>1.0-4.0)
Σ FIC (Escherichia coli [4]; antibiotic + SP-BIM 9): <2.0
Interpretation (Escherichia coli [4]; antibiotic + SP-BIM 13): Indifferent (Indifferent: FICI>1.0-4.0)
Σ FIC (Escherichia coli [4]; antibiotic + SP-BIM 13): <2.0
MIC in combination, Antibiotic (Escherichia coli [4]; [7]): 250 µg/mL
FIC of antibiotic (Escherichia coli [4]; combination with SP-BIM 13): 1.0
FIC of antibiotic (Escherichia coli [4]; in combination with SP-BIM 9): 1
MIC (Candida albicans; 24 h, read-out: MIC antibiotic only): 16 µg/mL
MIC in combination: Antibiotic (Candida albicans; [9]): 1
FIC of SP-BIM 13 (Candida albicans; [6]): 1.0
Interpretation (Candida albicans; antibiotic + SP-BIM 13): Indifferent (Indifferent: FICI>1.0-4.0)
Σ FIC (Candida albicans; antibiotic + SP-BIM 13): <1.1
FIC of antibiotic (Candida albicans; combination with SP-BIM 13): 0.1
